From ChEMBL document CHEMBL1148213, “Diterpenoids from Isodon melissoides” (J Nat Prod, 2004)
≈ marks a conversion by molar mass, not a printed value.

test system: BGC-823; experiment: Cytotoxicity against human BGC823 cells; format: functional, cell-based

Q: With `C=C1[C@@H]2C[C@H](O)[C@@H]3[C@](C2)(C[C@H](OC(C)=O)[C@@H]2C(C)(C)[C@@H](OC(C)=O)C[C@H](O)[C@]23C)[C@@H]1O` as the compound, how does the Activity read?
A: Not toxic

Q: With `C=C1[C@@H]2C[C@H](O)[C@@H]3[C@](C2)(C[C@H](OC(C)=O)[C@@H]2C(C)(C)[C@@H](OC(C)=O)C[C@H](OC(C)=O)[C@]23C)[C@@H]1O` as the compound, how does the Activity read?
A: Not toxic

Q: Which Activity does the source give for `C=C1[C@@H]2C[C@H](O)[C@H]3[C@]4(C)CC[C@H](O)C(C)(C)[C@H]4[C@@H](OC(C)=O)C[C@]3(C2)[C@@H]1O` here?
A: Not toxic

Q: Which Activity does the source give for `C=C1[C@@H]2C[C@H](O)[C@H]3[C@]4(C)CC[C@H](O)C(C)(C)[C@H]4[C@@H](OC(C)=O)[C@H](O)[C@]3(C2)[C@@H]1O` here?
A: Not toxic

Q: Which Activity does the source give for `C=C1[C@@H]2C[C@H](O)[C@H]3[C@]4(C)CC[C@H](O)C(C)(C)[C@H]4[C@@H](OC(C)=O)[C@H](OC(C)=O)[C@]3(C2)[C@@H]1O` here?
A: Not toxic

Q: How did the Activity turn out when `C=C1[C@@H]2C[C@H](O)[C@H]3[C@]4(C)CC[C@H](OC(C)=O)C(C)(C)[C@H]4[C@@H](OC(C)=O)C[C@]3(C2)[C@@H]1O` was run?
A: Not toxic

Q: For `C=C1[C@@H]2C[C@H](O)[C@H]3[C@]4(C)CC[C@H](OC(C)=O)C(C)(C)[C@H]4[C@@H](OC(C)=O)[C@H](OC(C)=O)[C@]3(C2)[C@@H]1O`, which Activity is on record?
A: Not toxic

Q: With `C=C1C(=O)[C@]23C[C@H]1C[C@H](O)[C@H]2[C@]1(C)CC[C@H](OC(C)=O)C(C)(C)[C@H]1[C@@H](OC(C)=O)[C@@H]3OC(C)=O` [DAWOENSIN A] as the compound, how does the IC50 read?
A: 3.54 µg/mL (≈ 7.43 µM)

Q: For `C=C1C(=O)[C@]23C[C@H]1C[C@H](O)[C@H]2[C@]1(C)CC[C@H](OC(C)=O)C(C)(C)[C@H]1[C@@H](OC(C)=O)[C@@H]3O` [MELISSOIDESIN G], which IC50 is on record?
A: 6.62 µg/mL (≈ 15.2 µM)

Q: For `C=C1C(=O)[C@]23C[C@H]1C[C@H](O)[C@H]2[C@]1(C)CC[C@H](O)C(C)(C)[C@H]1[C@@H](OC(C)=O)C3` [MELISSOIDESIN N], which IC50 is on record?
A: 0.036 µg/mL (≈ 0.0956 µM)

Q: For `C=C1C(=O)[C@]23C[C@H]1C[C@H](O)[C@H]2[C@]1(C)CC[C@H](OC(C)=O)C(C)(C)[C@H]1[C@@H](OC(C)=O)C3` [MELISSOIDESIN O], which IC50 is on record?
A: 7.83 µg/mL (≈ 18.7 µM)

Q: Which IC50 does the source give for `C=C1C(=O)[C@]23C[C@H]1C[C@H](O)[C@H]2[C@@]1(C)[C@H]([C@@H](OC(C)=O)C3)C(C)(C)[C@@H](OC(C)=O)C[C@@H]1O` [MELISSOIDESIN S] here?
A: 7.71 µg/mL (≈ 17.7 µM)

Q: `CC[C@]1(O)C[C@H]2CN(CCc3c([nH]c4ccccc34)[C@@](C(=O)OC)(c3cc4c(cc3OC)N(C=O)[C@H]3[C@@](O)(C(=O)OC)[C@H](OC(C)=O)[C@]5(CC)C=CCN6CC[C@]43[C@@H]65)C2)C1` [VINCRISTINE] was tested. Which IC50 did it give?
A: 0.066 µg/mL (≈ 0.08 µM)

Q: How did the IC50 turn out when `C=C1C(=O)[C@]23C[C@H]1C[C@H](O)[C@H]2[C@]1(C)CC[C@H](O)C(C)(C)[C@H]1[C@@H](OC(C)=O)[C@@H]3O` [XINDONGNIN B] was run?
A: 9.45 µg/mL (≈ 24.1 µM)
